# Source: patent US9376665B2, “Method for producing intestinal cells” (National University Corporation Kumamoto University, priority 2010, dated 2016)
# Entries after “also recorded” stand apart in the source; their conditions may differ.
# What was measured:
# [1] = tested on: human ES cells; test: Test Example 3: addition of various activators in human ES cells, proportion of Cdx2-positive cells by flow cytometry; format: cell-based; settings: 20th day of cultivation; FGF2 50 ng/mL besides BIO (5 ηM) and DAPT (10 μM)
# Protocol: With respect to human ES cells, it was examined whether or not addition of FGF2, BMP4 and/or SAG improves an efficiency of differentiation into Cdx2-positive cells in a feeder-free system.
# First, for the experiment of inducing the differentiation, human ES cells were plated on gelatin-coated dishes at 69,000 cells/cm^2. The ES cells were cultured for seven days in RPMI 1640 medium (Invitrogen) supplemented with NEAA, L-Gln, PS, β-ME, 10 μg/mL of Insulin (Sigma-Aldrich), 100 ng/mL of recombinant human activin A (R&D Systems, Minneapolis, Minn.), and B27 supplement (Invitrogen). Then, the culture medium was replaced with 10% KSR supplemented with 2,000 mg/mL of glucose, BIO ([…]), DAPT (10 μM) and activators and growth factors at the concentrations as described in Test Example 2. After that, cell culturing was further continued, and the cells were separated on the 9th day and the 20th day of cultivation in the same manner as Example 1, and then, the proportion of Cdx2-positive cells was evaluated by use of flow cytometry. The flow cytometry (FACS) analysis was carried out using BD Cytofix/Cytoperm™ Kit (BD Biosciences) in accordance with a manual provided by the manufacturer.
# [2] = tested on: human ES cells; test: Test Example 4: effect of FGF2 concentration on human ES cells, proportion of Cdx2-positive cells by flow cytometry; format: cell-based
# Protocol: Since there has been a previous report that a high concentration of FGF2 is important for differentiation of human ES cells into Cdx2-positive cells, it was examined whether or not the same results can be obtained. The final concentration of 250 ng/mL of FGF2 was used. In accordance with the method in Test Example 3, differentiation of human ES cells was carried out on gelatin-coated dishes until they differentiated into endoderm, and then (on the 7th day of cultivation), 0, 50, and 250 ng/mL of FGF2, respectively, were added thereto besides BIO (5 μM) and DAPT (10 μM), and the cells were further cultured until the 9th day or 20th day, and the proportion of Cdx2-positive cells was evaluated by flow cytometry. The flow cytometry (FACS) analysis was carried out using BD Cytofix/Cytoperm™ Kit (BD Biosciences) in accordance with a manual provided by the manufacturer.
# [3] = tested on: mouse ES cells; test: Test Example 2: addition of various activators, proportion of Cdx2-positive cells by flow cytometry, feeder-free; format: cell-based; settings: for Cdx2-positive cells: BIO (5 μM) and DAPT (10 μM) with or without FGF2 50 ng/mL
# Protocol: Therefore, next, an experiment in which the FGF signaling, the BMP signaling and the Hh signaling were activated was carried out. In view of micro-array data showing that MEF cells express FGF2 and BMP4, 50 ng/mL of FGF2 (PEPROTECH) and 25 ng/mL of BMP4 (R&D Systems) were used to activate the FGF signaling and the BMP signaling. Furthermore, as to activation of the Hh signaling, 300 nM of SAG (MERCK) (smoothend agonist; smo) was used.
# For the experiment of inducing the differentiation, the induction of differentiation was carried out in a feeder-free system as described below. First, mouse ES cells were plated on a gelatin-coated dish at 6,900 cells/cm^2. The ES cells were cultured for 7 days in DMEM medium (Dulbecco's Modified Eagle Medium) (Invitrogen, Glasgow, UK) containing 4,500 mg/L of glucose, supplemented with NEAA, L-Gln, PS, β-ME, 10 μg/mL of Insulin (Sigma-Aldrich), […] of Transferin (Sigma-Aldrich), 6.7 pg/mL of Selenium (Sigma-Aldrich), 0.25% AlbuMax (Invitrogen), and 10 ng/mL of recombinant human activin A (R&D Systems, Minneapolis, Minn.), and then, the culture medium was replaced with 10% KSR containing 2,000 mg/mL of glucose, BIO (5 μM) and DAPT (10 μM) and further supplemented with the activator or growth factor. After that, cell culturing was further continued, the cells were separated on the 10th day and the 15th day of cultivation as described in Example 1, and then, the proportion of Cdx2-positive cells was evaluated by use of flow cytometry. The flow cytometry (FACS) analysis was carried out using BD Cytofix/Cytoperm™ Kit (BD Biosciences) in accordance with a manual provided by the manufacturer.
# [4] = tested on: definitive endoderm cells; test: Effects of FGFs on intestinal differentiation of definitive endoderm cells (RT-PCR, Cdx2 immunohistochemistry); format: cell-based, mouse
# Protocol: The ES cells were culture on M15 cells added with 20 ng/mL of activin and 50 ng/mL of bFGF in DMEM medium containing 10% fetal bovine sera and […] of glucose for 5 days, and were analyzed using flow cytometry for definitive endoderm. For intestinal differentiation, the ES cells were further cultured on M15 or MEF cells, in the presence of BIO and DAPT, or without BIO and DAPT but with FGFs, in media with 10% KSR at a glucose concentration of 2000 mg/mL.
# 256 ng/mL of FGF2 (human bFGF) (Peprotech); and
# 50 ng/mL of FGF4 (Peprotech), FGF5 (Sigma), FGF7 (R&D Systems), FGF8 (Cosmo Bio), FGF9 (Peprotech), FGF10 (R&D Systems) and FGF18 (Sigma), respectively.
# RNA was extracted from the ES cells using TRI Reagent (Sigma) or RNeasy micro-kit (Qiagen), and then, was treated with DNase (Sigma). Three micrograms of RNA were reverse-transcribed using a MMLV reverse transcriptase (Toyobo) and oligo dT primers (Toyobo). The PCR conditions for each cycle include initial denaturation at 96° C. for one minute, and the second and subsequent cycles of denaturation at 96° C. for 30 seconds, annealing at 60° C. for 2 seconds and extension at 72° C. for 20 seconds, and the final cycle of extension at 72° C. for 7 minutes. RT-PCR products were separated by 5% non-denaturing polyacrylamide gel electrophoresis, stained with SYBR Green I (Molecular Probes), and visualized using Gel Logic 200 Imaging System (Kodak).
# [5] = tested on: khES-3 (human ES cell line); test: Intestinal differentiation of human ES cells on M15 cells; format: cell-based; design: dose or concentration left out as unconfirmed; settings: activin for 10 days
# Excerpt: Human ES cells (KhES-3) (PMID: 16707099) was those provided by Dr. N. Nakatsuji and Dr. H. Suemori (Kyoto University, Kyoto, Japan), and were used in accordance with the hES cell guidelines of the Japanese government. The undifferentiated hES cells were maintained on a feeder layer of MEF in Knockout DMEM/F12 (Invitrogen) supplemented with 20% KSR, L-Gln, NEAA and β-ME under 3% CO2. To passage the hES cells, hES cell colonies were detached from the feeder layer by treating them with 0.25% trypsin and 0.1 mg/mL of collagenase IV in PBS containing 20% KSR and 1 mM of CaCl2 at 37° C. for 5 minutes, followed by adding a culture medium thereto and gently pipetting them several times to desegregate ES cell clumps into smaller pieces (5-20 cells).
# For differentiation induction, the human ES cells were pre-treated with Y27632 (Wako) for 24 hours, and then, they were plated at 50,000 cells per well in 24-well plates that had been pre-coated with M15 cells. The ES cells were dissociated with 0.25% trypsin-EDTA (Invitrogen), and cultured in Y27632 containing an ES maintenance medium for one day. One day after plating, the cells were washed by PBS, and the medium was changed to a differentiation medium. […]
Molecule,proportion of Cdx2-positive cells [1],"proportion of Cdx2-positive cells ([2]; 9th day of cultivation, 250 ng/mL of FGF2 besides BIO (5 μM) and DAPT (10 μM))","proportion of Cdx2 positive cells ([2]; 20th day of cultivation, 0, 50 and 250 ng/mL of FGF2 besides BIO (5 μM) and DAPT (10 μM))",Cdx2-positive cells ([3]; 10th day of cultivation),"number of Cdx2-positive cells versus control (only BIO and DAPT) ([3]; 10th day of cultivation, FGF2 50 ng/mL or SAG 300 nM added besides BIO and DAPT)",Cdx2-positive cells ([3]; 15th day of cultivation),"efficiency of differentiation versus control (only BIO and DAPT) ([3]; 15th day of cultivation, FGF2 added besides BIO and DAPT)","induction of Cdx2-expressing intestinal cells ([4]; FGFs added from Day 4 of the differentiation, on MEF cells, immunohistochemistry on day 12)","molecular markers for enterocytes (Ifabp, Isx), goblet cells (Tff3), Paneth cells (Lyz1) and enteroendocrine cells (Sct, Syp, Sst, Gast) ([4]; RT-PCR, day 15, BIO and DAPT, or FGF2 (256 ng/mL) only without BIO and DAPT)",differentiation of khES-3 into definitive endoderm [5]
"FGF2: basic fibroblast growth factor, FGF2 (human bFGF) (Peprotech)",decreased,decreased,decreased depending on the concentration of FGF2,40%,significant increase,about 60%,more efficiently differentiate,induced Cdx2-expressing intestinal cells,induced at much lower levels; also recorded: small in extent,
"activin: recombinant human activin-A (R&D Systems) (protein, UniProt P08476 311-426, looked up, Inhibin beta A chain) Inhibin beta A chain: GLECDGKVNICCKKQFFVSFKDIGWNDWIIAPSGYHANYCEGECPSHIAGTSGSSLSFHSTVINHYRMRGHSPFANLKSCCVPTKLRPMSMLYYDDGQNIIKKDIQNMIVEECGCS",,,,,,,,,,differentiated into definitive endoderm
